Measured values: ChEMBL document CHEMBL5726876, “NHE3-binding compounds and methods for inhibiting phosphate transport” (2019)

Assay: Cell-based activity under Prompt Conditions: Cell-based activity under Prompt Conditions. Rat or human NHE3-mediated Na+-dependent H+ antiport was measured using a modification of the pH sensitive dye method originally reported by Paradiso (PNAS USA. 81:7436-7440, 1984). Opossum kidney (OK) cells were obtained from the ATCC and propagated per their instructions. The rat NHE3 gene (GenBank M85300) or the human NHE3 gene (GenBank NM_004174.1) was introduced into OK cells via electroporation, and cells were seeded into 96 well plates and grown overnight. Medium was aspirated from the wells, cells were washed twice with NaCl-HEPES buffer (100 mM NaCl, 50 mM HEPES, 10 mM glucose, 5 mM KCl, 2 mM CaCl2, 1 mM MgCl2, pH 7.4), then incubated for 30 min at room temperature with NH4Cl-HEPES buffer (20 mM NH4Cl, 80 mM NaCl, 50 mM HEPES, 5 mM KCl, 2 mM CaCl2, 1 mM MgCl2, pH 7.4) containing 5 μM bis(acetoxymethyl) 3,3′-(3′,6′-bis(acetoxymethoxy)-5-((acetoxymethoxy)carbonyl)-3-oxo-3H-spiro[isobenzofuran-1,9′-xanthene]-2′,7′-diyl)dipropanoate (BCECF-AM).Cells were washed twice with Ammonium free, Na+-free HEPES (100 mM choline, 50 mM HEPES, 10 mM glucose, 5 mM KCl, 2 mM CaCl2, 1 mM MgCl2, pH 7.4) and incubated in the same buffer for 10 minutes at room temperature to lower intracellular pH. […] Initial rates were plotted as the average 2 or more replicates, and pIC50 values were estimated using GraphPad Prism.

CN(C)[C@H]1Cc2c(Cl)cc(Cl)cc2[C@@H]1Oc1ccc(S(=O)(=O)NCCOCCOCCNC(=O)NCCCCNC(=O)NCCOCCOCCNS(=O)(=O)c2ccc(O[C@H]3c4cc(Cl)cc(Cl)c4C[C@@H]3N(C)C)cc2)cc1
IC50: 6.31 nM

CCCCCCCCCCC(=O)NC(CCC(=O)NCCOCCOCCNS(=O)(=O)c1cccc([C@@H]2CN(C)Cc3c(Cl)cc(Cl)cc32)c1)(CCC(=O)NCCOCCOCCNS(=O)(=O)c1cccc([C@@H]2CN(C)Cc3c(Cl)cc(Cl)cc32)c1)CCC(=O)NCCOCCOCCNS(=O)(=O)c1cccc([C@@H]2CN(C)Cc3c(Cl)cc(Cl)cc32)c1
IC50: < 10000 nM

CN1Cc2c(Cl)cc(Cl)cc2[C@H](c2cccc(S(=O)(=O)NCCOCCOCCNC(=O)N(C)CCCN(CCCN(C)C(=O)NCCOCCOCCNS(=O)(=O)c3cccc([C@@H]4CN(C)Cc5c(Cl)cc(Cl)cc54)c3)CCCN(C)C(=O)NCCOCCOCCNS(=O)(=O)c3cccc([C@@H]4CN(C)Cc5c(Cl)cc(Cl)cc54)c3)c2)C1
IC50: 126 nM

CN1Cc2c(Cl)cc(Cl)cc2[C@H](c2cccc(S(=O)(=O)NCCOCCOCCNC(=O)CCC(CCC(=O)NCCOCCOCCNS(=O)(=O)c3cccc([C@@H]4CN(C)Cc5c(Cl)cc(Cl)cc54)c3)(CCC(=O)NCCOCCOCCNS(=O)(=O)c3cccc([C@@H]4CN(C)Cc5c(Cl)cc(Cl)cc54)c3)NS(C)(=O)=O)c2)C1
IC50: 631 nM

CN1Cc2c(Cl)cc(Cl)cc2[C@H](c2cccc(S(=O)(=O)NCCOCCOCCNC(=O)CCC(=O)NCCOCCOCCNS(=O)(=O)c3ccc(O[C@H]4c5ccccc5C[C@@H]4N4CCCCC4)cc3)c2)C1
IC50: 31.6 nM

CN1Cc2c(Cl)cc(Cl)cc2[C@H](c2cccc(S(=O)(=O)NCCOCCOCCNC(=O)CCC(CCC(=O)NCCOCCOCCNS(=O)(=O)c3cccc([C@@H]4CN(C)Cc5c(Cl)cc(Cl)cc54)c3)(CCC(=O)NCCOCCOCCNS(=O)(=O)c3cccc([C@@H]4CN(C)Cc5c(Cl)cc(Cl)cc54)c3)NC(=O)CCC(=O)O)c2)C1
IC50: 31.6 nM

O=C(NCCOCCOCCOCCNS(=O)(=O)c1ccc(O[C@H]2c3ccccc3C[C@@H]2N2CCCCC2)cc1)c1ccc(C(=O)NCCOCCOCCOCCNS(=O)(=O)c2ccc(O[C@H]3c4ccccc4C[C@@H]3N3CCCCC3)cc2)cc1
IC50: 31.6 nM

O=C(NCCOCCOCCNS(=O)(=O)c1ccc(O[C@H]2c3ccccc3C[C@@H]2N2CCCCC2)cc1)c1ccc(C(=O)NCCOCCOCCNS(=O)(=O)c2ccc(O[C@H]3c4ccccc4C[C@@H]3N3CCCCC3)cc2)cc1
IC50: 7.94 nM

CN(C)[C@H]1Cc2ccc(Cl)cc2[C@@H]1Oc1ccc(S(=O)(=O)NCCOCCOCCNC(=O)NCCCCNC(=O)NCCOCCOCCNS(=O)(=O)c2ccc(O[C@H]3c4cc(Cl)ccc4C[C@@H]3N(C)C)cc2)cc1
IC50: < 10000 nM

CN1Cc2c(Cl)cc(Cl)cc2[C@H](c2cccc(S(=O)(=O)NCCOCCOCCOCCNCc3ccc(-c4ccc(Cl)cc4)cc3)c2)C1
IC50: < 10000 nM

CN1Cc2c(Cl)cc(Cl)cc2[C@H](c2cccc(S(=O)(=O)NCCOCCOCCNC(=O)NCCN(CCNC(=O)NCCOCCOCCNS(=O)(=O)c3cccc([C@@H]4CN(C)Cc5c(Cl)cc(Cl)cc54)c3)C(=O)NCCOCCOCCNC(=O)c3ccc(-c4ccc(Cl)cc4)cc3)c2)C1
IC50: 1580 nM

CCCCCCCCOc1ccc(CNCCOCCOCCOCCNS(=O)(=O)c2cccc([C@@H]3CN(C)Cc4c(Cl)cc(Cl)cc43)c2)cc1
IC50: < 10000 nM

CN1Cc2c(Cl)cc(Cl)cc2[C@H](c2cccc(S(=O)(=O)NCCOCCOCCNC(=O)COCC(=O)NCCOCCOCCNS(=O)(=O)c3ccc(O[C@H]4c5ccccc5C[C@@H]4N4CCCCC4)cc3)c2)C1
IC50: 25.1 nM

CN1Cc2c(Cl)cc(Cl)cc2[C@H](c2cccc(S(=O)(=O)NCCOCCOCCNC(=O)CCC(CCC(=O)NCCOCCOCCNS(=O)(=O)c3cccc([C@@H]4CN(C)Cc5c(Cl)cc(Cl)cc54)c3)(CCC(=O)NCCOCCOCCNS(=O)(=O)c3cccc([C@@H]4CN(C)Cc5c(Cl)cc(Cl)cc54)c3)NCc3ccc(-c4ccc(Cl)cc4)cc3)c2)C1
IC50: < 10000 nM

CC(C)CCC[C@@H](C)[C@H]1CC[C@H]2[C@@H]3CC=C4C[C@@H](OC(=O)NCCOCCOCCNC(=O)N(CCNC(=O)NCCOCCOCCNS(=O)(=O)c5cccc([C@@H]6CN(C)Cc7c(Cl)cc(Cl)cc76)c5)CCNC(=O)NCCOCCOCCNS(=O)(=O)c5cccc([C@@H]6CN(C)Cc7c(Cl)cc(Cl)cc76)c5)CC[C@]4(C)[C@H]3CC[C@]12C
IC50: < 10000 nM

CN1Cc2c(Cl)cc(Cl)cc2[C@H](c2cccc(S(=O)(=O)NCCOCCOCCNC(=O)NCCN(CCNC(=O)NCCOCCOCCNS(=O)(=O)c3cccc([C@@H]4CN(C)Cc5c(Cl)cc(Cl)cc54)c3)C(=O)NCCOCCOCCN)c2)C1
IC50: 3.98 nM

CN1Cc2c(Cl)cc(Cl)cc2[C@H](c2cccc(S(=O)(=O)NCCOCCOCCNC(=O)CN(CCOCCOCCOCCN)CC(=O)NCCOCCOCCNS(=O)(=O)c3cccc([C@@H]4CN(C)Cc5c(Cl)cc(Cl)cc54)c3)c2)C1
IC50: 15.8 nM

CN1Cc2c(Cl)cc(Cl)cc2[C@H](c2cccc(S(=O)(=O)NCCOCCOCCNC(=O)NCCC[N+](C)(CCCNC(=O)NCCOCCOCCNS(=O)(=O)c3cccc([C@@H]4CN(C)Cc5c(Cl)cc(Cl)cc54)c3)CCCNC(=O)NCCOCCOCCNS(=O)(=O)c3cccc([C@@H]4CN(C)Cc5c(Cl)cc(Cl)cc54)c3)c2)C1
IC50: 39.8 nM

CN(C)CC(=O)NC(CCC(=O)NCCOCCOCCNS(=O)(=O)c1cccc([C@@H]2CN(C)Cc3c(Cl)cc(Cl)cc32)c1)(CCC(=O)NCCOCCOCCNS(=O)(=O)c1cccc([C@@H]2CN(C)Cc3c(Cl)cc(Cl)cc32)c1)CCC(=O)NCCOCCOCCNS(=O)(=O)c1cccc([C@@H]2CN(C)Cc3c(Cl)cc(Cl)cc32)c1
IC50: 79.4 nM

C=CC(=O)NCCOCCOCCOCCNS(=O)(=O)c1cccc([C@@H]2CN(C)Cc3c(Cl)cc(Cl)cc32)c1
IC50: 200 nM

CN1Cc2c(Cl)cc(Cl)cc2[C@H](c2cccc(S(=O)(=O)NCCOCCOCCNC(=O)CN(CCOCCOCCOCCNC(=O)c3ccc(-c4ccc(Cl)cc4)cc3)CC(=O)NCCOCCOCCNS(=O)(=O)c3cccc([C@@H]4CN(C)Cc5c(Cl)cc(Cl)cc54)c3)c2)C1
IC50: 1260 nM

CN1Cc2c(Cl)cc(Cl)cc2[C@H](c2cccc(S(=O)(=O)NCCOCCOCCNC(=O)CCC(CCC(=O)NCCOCCOCCNS(=O)(=O)c3cccc([C@@H]4CN(C)Cc5c(Cl)cc(Cl)cc54)c3)(CCC(=O)NCCOCCOCCNS(=O)(=O)c3cccc([C@@H]4CN(C)Cc5c(Cl)cc(Cl)cc54)c3)NC(=O)N(C)C)c2)C1
IC50: 2510 nM

O=C(NCCOCCOCCNS(=O)(=O)c1ccc(O[C@H]2c3ccccc3C[C@@H]2N2CCCCC2)cc1)c1cccc(C(=O)NCCOCCOCCNS(=O)(=O)c2ccc(O[C@H]3c4ccccc4C[C@@H]3N3CCCCC3)cc2)c1
IC50: < 10000 nM

CC(C)CCC[C@@H](C)[C@H]1CC[C@H]2[C@@H]3CC=C4C[C@@H](OC(=O)NCCOCCOCCOCCNS(=O)(=O)c5cccc([C@@H]6CN(C)Cc7c(Cl)cc(Cl)cc76)c5)CC[C@]4(C)[C@H]3CC[C@]12C
IC50: < 10000 nM

CN(C)[C@H]1Cc2ccccc2[C@@H]1Oc1ccc(S(=O)(=O)NCCOCCOCCNC(=O)NCCCCNC(=O)NCCOCCOCCNS(=O)(=O)c2ccc(O[C@H]3c4ccccc4C[C@@H]3N(C)C)cc2)cc1
IC50: < 10000 nM

CC(C)(C(=O)NCCOCCOCCOCCNS(=O)(=O)c1ccc(O[C@H]2c3ccccc3C[C@@H]2N2CCCCC2)cc1)C(=O)NCCOCCOCCOCCNS(=O)(=O)c1ccc(O[C@H]2c3ccccc3C[C@@H]2N2CCCCC2)cc1
IC50: 2 nM

O=C(NCCCCNC(=O)NCCOCCOCCNS(=O)(=O)c1ccc(O[C@H]2c3ccccc3C[C@@H]2N2CCCC2)cc1)NCCOCCOCCNS(=O)(=O)c1ccc(O[C@H]2c3ccccc3C[C@@H]2N2CCCC2)cc1
IC50: 2.51 nM

O=C(NCCOCCOCCNS(=O)(=O)c1ccc(O[C@H]2c3ccccc3C[C@@H]2N2CCCCC2)cc1)[C@H](O)[C@@H](O)C(=O)NCCOCCOCCNS(=O)(=O)c1ccc(O[C@H]2c3ccccc3C[C@@H]2N2CCCCC2)cc1
IC50: 3.98 nM

O=C(NCCOCCOCCOCCNS(=O)(=O)c1ccc(O[C@H]2c3ccccc3C[C@@H]2N2CCCCC2)cc1)c1cccc(C(=O)NCCOCCOCCOCCNS(=O)(=O)c2ccc(O[C@H]3c4ccccc4C[C@@H]3N3CCCCC3)cc2)c1
IC50: 39.8 nM

CCCCCCCCOCCOCCOCCOCCOCCOC(=O)NCCOCCOCCOCCNS(=O)(=O)c1cccc([C@@H]2CN(C)Cc3c(Cl)cc(Cl)cc32)c1
IC50: 251 nM

CCC(=O)NCCOCCOCCOCCNS(=O)(=O)c1cccc([C@@H]2CN(C)Cc3c(Cl)cc(Cl)cc32)c1
IC50: 200 nM

O=C(NCCCCNC(=O)NCCOCCOCCNC(=O)Nc1cccc(O[C@H]2c3ccccc3C[C@@H]2N2CCCCC2)c1)NCCOCCOCCNC(=O)Nc1cccc(O[C@H]2c3ccccc3C[C@@H]2N2CCCCC2)c1
IC50: < 10000 nM

CN1Cc2c(Cl)cc(Cl)cc2[C@H](c2cccc(S(=O)(=O)NCCOCCOCCOCCNC(=O)CCC(CCC(=O)NCCOCCOCCOCCNS(=O)(=O)c3cccc([C@@H]4CN(C)Cc5c(Cl)cc(Cl)cc54)c3)(CCC(=O)NCCOCCOCCOCCNS(=O)(=O)c3cccc([C@@H]4CN(C)Cc5c(Cl)cc(Cl)cc54)c3)NCc3ccc(-c4ccc(Cl)cc4)cc3)c2)C1
IC50: < 10000 nM

CN1Cc2c(Cl)cc(Cl)cc2[C@H](c2cccc(S(=O)(=O)N(C)CCOCCOCCNC(=O)NCCCN(CCCNC(=O)NCCOCCOCCN(C)S(=O)(=O)c3cccc([C@@H]4CN(C)Cc5c(Cl)cc(Cl)cc54)c3)CCCNC(=O)NCCOCCOCCN(C)S(=O)(=O)c3cccc([C@@H]4CN(C)Cc5c(Cl)cc(Cl)cc54)c3)c2)C1
IC50: 100 nM

CCOCCOCCOCCOCCOCCC(=O)N(CCNC(=O)NCCOCCOCCNS(=O)(=O)c1cccc([C@@H]2CN(C)Cc3c(Cl)cc(Cl)cc32)c1)CCNC(=O)NCCOCCOCCNS(=O)(=O)c1cccc([C@@H]2CN(C)Cc3c(Cl)cc(Cl)cc32)c1
IC50: 251 nM

CN1Cc2c(Cl)cc(Cl)cc2C(c2cccc(S(=O)(=O)NCCOCCOCCNC(=O)CCC(CCC(=O)NCCOCCOCCNS(=O)(=O)c3cccc([C@@H]4CN(C)Cc5c(Cl)cc(Cl)cc54)c3)(CCC(=O)NCCOCCOCCNS(=O)(=O)c3cccc([C@@H]4CN(C)Cc5c(Cl)cc(Cl)cc54)c3)N(C)C)c2)C1 (stereo partly specified)
IC50: 67.6 nM
